In patent US20260262643A1, “HERBICIDAL BENZOXAZINES” (FMC CORPORATION, priority 2022, published 2026):

Legend:
blackgrass [1] = assay: Test A postemergence; type: in vivo, Alopecurus myosuroides; settings: postemergence, 10 days; for Blackgrass plant response rating: 125 g ai/ha, 0 to 100 scale, 0 no effect, 100 complete control; for Plant response rating, Blackgrass: 500 g ai/ha, visual injury, 0 to 100 scale (0 no effect, 100 complete control)
How it was run: (§1)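 Plants were grown in loam and sand and treated preemergence or postemergence (one- to two-leaf stage, 2–10 cm) with compound in solvent plus surfactant. Response was scored against untreated controls after 10 greenhouse days, where 0 means no effect and 100 complete control.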

sedge, umbrella = assay: Test B flooded paddy test; type: in vivo, Cyperus difformis; settings: 250 g ai/ha, Flood, 13 days, 0 to 100 scale (0 no effect, 100 complete control)
How it was run: (§2)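 Two-leaf plants, 3 cm flood, in-water application, 13-day greenhouse hold, visual 0–100 rating vs untreated checks.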

oat, wild [2] = assay: Test A postemergence; type: in vivo, Avena fatua; settings: postemergence, 10 days; for Oat, Wild plant response rating: 125 g ai/ha, 0 to 100 scale, 0 no effect, 100 complete control; for Plant response rating, Oat, Wild: 500 g ai/ha, visual injury, 0 to 100 scale (0 no effect, 100 complete control)
How it was run: as §1

foxtail, giant [3] = assay: Test A postemergence; type: in vivo, Setaria faberi; settings: postemergence, 10 days; for Foxtail, Giant plant response rating: 125 g ai/ha, 0 to 100 scale, 0 no effect, 100 complete control; for Plant response rating, Foxtail, Giant: 500 g ai/ha, visual injury, 0 to 100 scale (0 no effect, 100 complete control)
How it was run: as §1

wheat [4] = assay: Test A preemergence; type: in vivo, Triticum aestivum; settings: 0 to 100 scale
How it was run: as §1

galium = assay: Test A postemergence; type: in vivo, Galium aparine; settings: postemergence, 10 days; for Galium plant response rating: 125 g ai/ha, 0 to 100 scale, 0 no effect, 100 complete control; for Plant response rating, Galium: 500 g ai/ha, visual injury, 0 to 100 scale (0 no effect, 100 complete control)
How it was run: as §1

oat, wild [5] = assay: Test A preemergence; type: in vivo, Avena fatua; settings: 0 to 100 scale
How it was run: as §1

foxtail, giant [6] = assay: Test A preemergence; type: in vivo, Setaria faberi; settings: 0 to 100 scale
How it was run: as §1

barnyardgrass [7] = assay: Test B flooded paddy test; type: in vivo, Echinochloa crus-galli; settings: 250 g ai/ha, Flood, 13 days, 0 to 100 scale (0 no effect, 100 complete control)
How it was run: as §2

corn [8] = assay: Test A postemergence; type: in vivo, Zea mays; settings: postemergence, 10 days; for Corn plant response rating: 125 g ai/ha, 0 to 100 scale, 0 no effect, 100 complete control; for Plant response rating, Corn: 500 g ai/ha, visual injury, 0 to 100 scale (0 no effect, 100 complete control)
How it was run: as §1

ryegrass, Italian [9] = assay: Test A postemergence; type: in vivo, Lolium multiflorum; settings: postemergence, 10 days; for Ryegrass, Italian plant response rating: 125 g ai/ha, 0 to 100 scale, 0 no effect, 100 complete control; for Plant response rating, Ryegrass, Italian: 500 g ai/ha, visual injury, 0 to 100 scale (0 no effect, 100 complete control)
How it was run: as §1

kochia [10] = assay: Test A postemergence; type: in vivo, Bassia scoparia; settings: postemergence, 10 days; for Kochia plant response rating: 125 g ai/ha, 0 to 100 scale, 0 no effect, 100 complete control; for Plant response rating, Kochia: 500 g ai/ha, visual injury, 0 to 100 scale (0 no effect, 100 complete control)
How it was run: as §1

ryegrass, Italian [11] = assay: Test A preemergence; type: in vivo, Lolium multiflorum; settings: 0 to 100 scale
How it was run: as §1

blackgrass [12] = assay: Test A preemergence; type: in vivo, Alopecurus myosuroides; settings: 0 to 100 scale
How it was run: as §1

ducksalad = assay: Test B flooded paddy test; type: in vivo, Heteranthera limosa; settings: 250 g ai/ha, Flood, 13 days, 0 to 100 scale (0 no effect, 100 complete control)
How it was run: as §2

horseweed = assay: Test A postemergence; type: in vivo, Erigeron canadensis; settings: postemergence, 10 days; for Horseweed plant response rating: 125 g ai/ha, 0 to 100 scale, 0 no effect, 100 complete control; for Plant response rating, Horseweed: 500 g ai/ha, visual injury, 0 to 100 scale (0 no effect, 100 complete control)
How it was run: as §1

pigweed, palmer [13] = assay: Test A preemergence; type: in vivo, Amaranthus palmeri; settings: 0 to 100 scale
How it was run: as §1

soybean [14] = assay: Test A postemergence; type: in vivo, Glycine max; settings: postemergence, 10 days; for Plant response rating, Soybean: 500 g ai/ha, visual injury, 0 to 100 scale (0 no effect, 100 complete control)
How it was run: as §1

pigweed, palmer [15] = assay: Test A postemergence; type: in vivo, Amaranthus palmeri; settings: postemergence, 10 days; for Pigweed, Palmer plant response rating: 125 g ai/ha, 0 to 100 scale, 0 no effect, 100 complete control; for Plant response rating, Pigweed, Palmer: 500 g ai/ha, visual injury, 0 to 100 scale (0 no effect, 100 complete control)
How it was run: as §1

rice = assay: Test B flooded paddy test; type: in vivo, Oryza sativa; settings: 250 g ai/ha, Flood, 13 days, 0 to 100 scale (0 no effect, 100 complete control)
How it was run: as §2

barnyardgrass [16] = assay: Test A preemergence; type: in vivo, Echinochloa crusgalli; settings: visual injury after 10 days, 0 to 100 scale, 0 is no effect, 100 is complete control
How it was run: as §1

ragweed [17] = assay: Test A preemergence; type: in vivo, Ambrosia artemisiifolia; settings: 0 to 100 scale
How it was run: as §1

kochia [18] = assay: Test A preemergence; type: in vivo, Bassia scoparia; settings: 0 to 100 scale
How it was run: as §1

corn [19] = assay: Test A preemergence; type: in vivo, Zea mays; settings: 0 to 100 scale
How it was run: as §1

wheat [20] = assay: Test A postemergence; type: in vivo, Triticum aestivum; settings: postemergence, 10 days; for Wheat plant response rating: 125 g ai/ha, 0 to 100 scale, 0 no effect, 100 complete control; for Plant response rating, Wheat: 500 g ai/ha, visual injury, 0 to 100 scale (0 no effect, 100 complete control)
How it was run: as §1

soybean [21] = assay: Test A preemergence; type: in vivo, Glycine max; settings: 0 to 100 scale
How it was run: as §1

barnyardgrass [22] = assay: Test A postemergence; type: in vivo, Echinochloa crusgalli; settings: postemergence, 10 days; for Barnyardgrass plant response rating: 125 g ai/ha, 0 to 100 scale, 0 no effect, 100 complete control; for Plant response rating, Barnyardgrass: 500 g ai/ha, visual injury, 0 to 100 scale (0 no effect, 100 complete control)
How it was run: as §1

ragweed [23] = assay: Test A postemergence; type: in vivo, Ambrosia artemisiifolia; settings: postemergence, 10 days; for Ragweed plant response rating: 125 g ai/ha, 0 to 100 scale, 0 no effect, 100 complete control; for Plant response rating, Ragweed: 500 g ai/ha, visual injury, 0 to 100 scale (0 no effect, 100 complete control)
How it was run: as §1

[24] = 500 g ai/ha, visual injury after 10 days, 0 is no effect, 100 is complete control
[25] = 125 g ai/ha, visual injury after 10 days, 0 is no effect, 100 is complete control

Compound: Cc1cccc2c1OC(C(F)(F)F)CN2C(=O)c1ccnc(-n2cncn2)c1 (stereo not shown) [Compound 144]
- Blackgrass plant response rating (blackgrass [1]): 70
- Plant response rating, Blackgrass (blackgrass [1]): 90
- Plant response rating, Sedge, Umbrella (sedge, umbrella): 60
- Oat, Wild plant response rating (oat, wild [2]): 0
- Plant response rating, Oat, Wild (oat, wild [2]): 40
- Foxtail, Giant plant response rating (foxtail, giant [3]): 80
- Plant response rating, Foxtail, Giant (foxtail, giant [3]): 90
- Plant response rating, Wheat (wheat [4]; 125 g ai/ha): 30
- Plant response rating, Wheat (wheat [4]; [24]): 50
- Galium plant response rating (galium): 70
- Plant response rating, Galium (galium): 100
- Plant response rating, Oat, Wild (oat, wild [5]; 125 g ai/ha): 30
- Plant response rating, Oat, Wild (oat, wild [5]; [24]): 60
- Plant response rating, Foxtail, Giant (foxtail, giant [6]; 125 g ai/ha): 100
- Plant response rating, Foxtail, Giant (foxtail, giant [6]; [24]): 100
- Plant response rating, Barnyardgrass (barnyardgrass [7]): 0
- Corn plant response rating (corn [8]): 40
- Plant response rating, Corn (corn [8]): 70
- Ryegrass, Italian plant response rating (ryegrass, Italian [9]): 50
- Plant response rating, Ryegrass, Italian (ryegrass, Italian [9]): 90
- Kochia plant response rating (kochia [10]): 10
- Plant response rating, Kochia (kochia [10]): 60
- Plant response rating, Ryegrass, Italian (ryegrass, Italian [11]; 125 g ai/ha): 90
- Plant response rating, Ryegrass, Italian (ryegrass, Italian [11]; [24]): 100
- Plant response rating, Blackgrass (blackgrass [12]; 125 g ai/ha): 50
- Plant response rating, Blackgrass (blackgrass [12]; [24]): 80
- Plant response rating, Ducksalad (ducksalad): 65
- Horseweed plant response rating (horseweed): 0
- Plant response rating, Horseweed (horseweed): 0
- Plant response rating, Pigweed, Palmer (pigweed, palmer [13]; 125 g ai/ha): 10
- Plant response rating, Pigweed, Palmer (pigweed, palmer [13]; [24]): 100
- Soybean plant response rating (soybean [14]; 125 g ai/ha, 0 to 100 scale, 0 no effect, 100 complete control): 100
- Plant response rating, Soybean (soybean [14]): 100
- Pigweed, Palmer plant response rating (pigweed, palmer [15]): 20
- Plant response rating, Pigweed, Palmer (pigweed, palmer [15]): 40
- Plant response rating, Rice (rice): 0
- Plant response rating, Barnyardgrass (barnyardgrass [16]; 125 g ai/ha): 50
- Plant response rating, Barnyardgrass (barnyardgrass [16]; 500 g ai/ha): 90
- Plant response rating, Ragweed (ragweed [17]; 125 g ai/ha): 0
- Plant response rating, Ragweed (ragweed [17]; [24]): 30
- Plant response rating, Kochia (kochia [18]; 125 g ai/ha): 0
- Plant response rating, Kochia (kochia [18]; [24]): 60
- Plant response rating, Corn (corn [19]; 125 g ai/ha): 30
- Plant response rating, Corn (corn [19]; [24]): 50
- Wheat plant response rating (wheat [20]): 20
- Plant response rating, Wheat (wheat [20]): 60
- Plant response rating, Soybean (soybean [21]; 125 g ai/ha): 0
- Plant response rating, Soybean (soybean [21]; [24]): 100
- Barnyardgrass plant response rating (barnyardgrass [22]): 20
- Plant response rating, Barnyardgrass (barnyardgrass [22]): 90
- Ragweed plant response rating (ragweed [23]): 0
- Plant response rating, Ragweed (ragweed [23]): 0

Compound: C=CCOc1ccc(-n2cnc(C(C)C)n2)cc1C(=O)N1C[C@H](C)Oc2c(Cl)cccc21 [Compound 110]
- Blackgrass plant response rating (blackgrass [1]): 0
- Plant response rating, Blackgrass (blackgrass [1]): 50
- Plant response rating, Sedge, Umbrella (sedge, umbrella): 65
- Oat, Wild plant response rating (oat, wild [2]): 0
- Plant response rating, Oat, Wild (oat, wild [2]): 30
- Foxtail, Giant plant response rating (foxtail, giant [3]): 40
- Plant response rating, Foxtail, Giant (foxtail, giant [3]): 90
- Plant response rating, Wheat (wheat [4]; [25]): 20
- Plant response rating, Wheat (wheat [4]; [24]): 30
- Galium plant response rating (galium): 100
- Plant response rating, Galium (galium): 100
- Plant response rating, Oat, Wild (oat, wild [5]; [25]): 0
- Plant response rating, Oat, Wild (oat, wild [5]; [24]): 50
- Plant response rating, Foxtail, Giant (foxtail, giant [6]; [25]): 90
- Plant response rating, Foxtail, Giant (foxtail, giant [6]; [24]): 100
- Plant response rating, Barnyardgrass (barnyardgrass [7]): 55
- Corn plant response rating (corn [8]): 10
- Plant response rating, Corn (corn [8]): 50
- Ryegrass, Italian plant response rating (ryegrass, Italian [9]): 20
- Plant response rating, Ryegrass, Italian (ryegrass, Italian [9]): 80
- Kochia plant response rating (kochia [10]): 70
- Plant response rating, Kochia (kochia [10]): 90
- Plant response rating, Ryegrass, Italian (ryegrass, Italian [11]; [25]): 70
- Plant response rating, Ryegrass, Italian (ryegrass, Italian [11]; [24]): 100
- Plant response rating, Blackgrass (blackgrass [12]; [25]): 40
- Plant response rating, Blackgrass (blackgrass [12]; [24]): 70
- Plant response rating, Ducksalad (ducksalad): 0
- Horseweed plant response rating (horseweed): 0
- Plant response rating, Horseweed (horseweed): 0
- Plant response rating, Pigweed, Palmer (pigweed, palmer [13]; [25]): 90
- Plant response rating, Pigweed, Palmer (pigweed, palmer [13]; [24]): 100
- Plant response rating, Soybean (soybean [14]): 100
- Pigweed, Palmer plant response rating (pigweed, palmer [15]): 40
- Plant response rating, Pigweed, Palmer (pigweed, palmer [15]): 50
- Plant response rating, Rice (rice): 0
- Plant response rating, Barnyardgrass (barnyardgrass [16]; 125 g ai/ha): 50
- Plant response rating, Barnyardgrass (barnyardgrass [16]; 500 g ai/ha): 90
- Plant response rating, Ragweed (ragweed [17]; [25]): 0
- Plant response rating, Ragweed (ragweed [17]; [24]): 40
- Plant response rating, Kochia (kochia [18]; [25]): 0
- Plant response rating, Kochia (kochia [18]; [24]): 20
- Plant response rating, Corn (corn [19]; [25]): 0
- Plant response rating, Corn (corn [19]; [24]): 50
- Wheat plant response rating (wheat [20]): 10
- Plant response rating, Wheat (wheat [20]): 20
- Plant response rating, Soybean (soybean [21]; [25]): 40
- Plant response rating, Soybean (soybean [21]; [24]): 60
- Barnyardgrass plant response rating (barnyardgrass [22]): 20
- Plant response rating, Barnyardgrass (barnyardgrass [22]): 50
- Ragweed plant response rating (ragweed [23]): 10
- Plant response rating, Ragweed (ragweed [23]): 60
